Measurements from US8546380B2, “Aminodihydrothiazine derivatives” (Shionogi & Co., Ltd., priority 2005, dated 2013).

Molecular target: recombinant human BACE-1 protein (Homo sapiens (Human), UniProt P56817)
Assay: Measurement of Inhibition of β-Secretase Activity
Assay type: biochemical
Conditions: fluorescence-quenched peptide substrate 18 nM, BACE-1 7.4 nM, 3 h at 30° C., pH5.0; read-out: IC50 value
Outline: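 Recombinant human BACE-1 incubated with compound and Eu-cryptate-labelled biotinylated peptide substrate 3 h at 30° C in 50 mM sodium acetate pH 5.0, 0.008% Triton X-100. Streptavidin-XL665 in KF-containing phosphate buffer pH 7.0 then added, 1 h at 30° C, for time-resolved FRET read-out.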

Sequence of recombinant human BACE-1 protein (P56817 46-501): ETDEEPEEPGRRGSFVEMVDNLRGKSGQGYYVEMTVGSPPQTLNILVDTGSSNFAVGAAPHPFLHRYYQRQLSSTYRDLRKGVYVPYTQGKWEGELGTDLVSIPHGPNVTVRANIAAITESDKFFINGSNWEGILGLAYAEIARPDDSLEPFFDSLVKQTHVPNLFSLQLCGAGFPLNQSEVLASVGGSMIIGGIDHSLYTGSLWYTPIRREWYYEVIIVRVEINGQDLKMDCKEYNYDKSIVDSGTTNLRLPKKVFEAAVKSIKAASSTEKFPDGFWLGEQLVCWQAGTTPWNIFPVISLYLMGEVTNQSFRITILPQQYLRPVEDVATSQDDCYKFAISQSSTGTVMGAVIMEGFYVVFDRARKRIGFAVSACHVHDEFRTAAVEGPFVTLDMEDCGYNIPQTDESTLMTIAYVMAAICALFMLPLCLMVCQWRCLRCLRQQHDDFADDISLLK

SMILES | IC50
CC1(c2ccc3ccccc3c2)CCSC(N)=N1.Cl (stereo not shown) [Compound 3] | < 100 µM
CC1(c2ccc3c(c2)CCCC3)CCSC(N)=N1 (stereo not shown) [Compound 6] | < 100 µM
COc1ccc(C2(C)N=C(N)SCC2C)cc1.Cl (stereo not shown) [Compound 8] | < 100 µM
CC1(c2cccc(NC(=O)CCNC(=O)c3ccc(Br)cc3)c2)CCSC(N)=N1 (stereo not shown) [Compound 1255] | < 100 µM
CC1(c2cccc(C(=O)Nc3nccs3)c2)CCSC(N)=N1 (stereo not shown) [Compound 1256] | < 100 µM
CC1(c2cccc(OC(F)(F)C(=O)Nc3ccccc3)c2)CCSC(N)=N1 (stereo not shown) [Compound 1257] | < 100 µM
CC1(c2cccc(NC(=O)/C=C/c3ccccc3)c2)CCSC(N)=N1 (stereo not shown) [Compound 1258] | < 100 µM
CC1(c2cccc(NC(=O)c3cnc(NCCO)cn3)c2)CCSC(N)=N1 (stereo not shown) [Compound 1263] | < 100 µM
CC1(c2cccc(NC(=O)c3cnc(N4CCOCC4)cn3)c2)CCSC(N)=N1 (stereo not shown) [Compound 1264] | < 100 µM
CC1(c2cccc(NC(=O)c3cnc(N)cn3)c2)CCSC(N)=N1 (stereo not shown) [Compound 1265] | < 100 µM
CC1(c2cccc(NC(=O)c3cnc(N=[N+]=N)cn3)c2)CCSC(N)=N1 (stereo not shown) [Compound 1266] | < 100 µM
COCCNc1cnc(C(=O)Nc2cccc(C3(C)CCSC(N)=N3)c2)cn1 (stereo not shown) [Compound 1269] | < 100 µM
COc1cnc(C(=S)Nc2cccc(C3(C)CCSC(N)=N3)c2)cn1 (stereo not shown) [Compound 1270] | < 100 µM
CC1(c2cccc(NC(=O)c3cnc(N4CCCC4)cn3)c2)CCSC(N)=N1 (stereo not shown) [Compound 1271] | < 100 µM
CC1(c2cccc(NC(=O)C(=O)c3ccccc3)c2)CCSC(N)=N1 (stereo not shown) [Compound 1272] | < 100 µM

Tested on: not given
Assay: not given
Conditions: not given

SMILES | melting point
CC1(c2ccc3ccccc3c2)CSC(N)=N1.Cl (stereo not shown) | 264 to 265 °C
CCN(C(=O)c1ccco1)c1cccc(C2(C)CCSC(N)=N2)c1.Cl (stereo not shown) | 262 to 267 °C
CN1C(=N)SCCC1(C)c1ccc2ccccc2c1.Cl (stereo not shown) | 266 to 268 °C
CC1(c2cccc(O)c2)CCSC(N)=N1.Cl (stereo not shown) | 238 to 239 °C
COc1ccc(C2(C)CCSC(=N)N2C)cc1.Cl (stereo not shown) | 221 to 224 °C
CC1(c2ccccc2)CC(c2ccccc2)SC(N)=N1.Cl (stereo not shown) | 161 to 165 °C
Cc1ccc(C(=O)NCc2cccc(C3(C)CCSC(N)=N3)c2)cc1.Cl (stereo not shown) | 153 to 155 °C
CC1(c2ccc(OCc3ccc(-c4ccccc4)cc3)cc2)CCSC(N)=N1.Cl (stereo not shown) | 281 °C (dec.)
CC1(c2ccccc2)CCN=C(N)S1.Cl (stereo not shown) | 201 to 204 °C
CC1(c2ccccc2)CN=C(N)SC1.Cl (stereo not shown) | 235 to 240 °C
CO/N=C(\C)c1cccc(C2(C)CCSC(N)=N2)c1.Cl (stereo not shown) | 192 to 194 °C
CC1(c2cccc3c2CC(=O)N3)CCSC(N)=N1.Cl (stereo not shown) | 272 to 285 °C (dec.)
CC1(c2ccc3c(c2)OCCO3)CCNC(N)=N1.Cl (stereo not shown) | 198 to 201 °C
COc1ccc(C2(C)CCSC(NC(=N)N)=N2)cc1F.Cl (stereo not shown) | 167 to 174 °C
CC1(c2ccccc2)CCN=C(N)O1.Cl (stereo not shown) | 205 to 206 °C
CC1(c2ccccc2)CCCSC(N)=N1.Cl (stereo not shown) | 223 to 225 °C
CC1(c2cccc(CNC(=O)c3ccccc3)c2)CCSC(N)=N1.Cl (stereo not shown) | 143 to 145 °C
COc1ccc(C2(C)CCCN=C(N)S2)cc1.Cl (stereo not shown) | 130 to 131 °C
CC1(c2ccc3ccccc3c2)CCSC(N)=N1.Cl (stereo not shown) [Compound 3] | 285 °C (dec.)
CC1(c2ccc3c(c2)CCCC3)CCSC(N)=N1 (stereo not shown) [Compound 6] | 147 to 148 °C
COc1ccc(C2(C)N=C(N)SCC2C)cc1.Cl (stereo not shown) [Compound 8] | 214 to 217 °C
CC1(c2ccc(Cl)cc2)CSC(N)=N1 (stereo not shown) [Compound 24] | 116 to 117 °C
CC1(c2ccc(N)cc2)CCSC(N)=N1 (stereo not shown) [Compound 58] | 234 to 240 °C
COc1ccc(C2(C)CC(C)SC(N)=N2)cc1 (stereo not shown) [Compound 86] | 141 to 142 °C
CCOc1ccc(C2(C)CCSC(N)=N2)cc1 (stereo not shown) [Compound 132] | 147 to 150 °C
CC1(c2cccc(OCCCN3CCCC3=O)c2)CCSC(N)=N1 (stereo not shown) [Compound 149] | 143 to 145 °C

SMILES | melting point
CCCC1(c2ccc(OC)cc2)CCSC(N)=N1 (stereo not shown) [Compound 202] | 117 to 118 °C
CC1(c2csc(C(=O)Nc3ccccc3)c2)CCSC(N)=N1 (stereo not shown) [Compound 235] | 196 to 200 °C
CC1(c2cc(F)cc(NC(=O)c3cnccn3)c2)CCSC(N)=N1 (stereo not shown) [Compound 244] | 222 to 224 °C
COCc1cc(NC(=O)c2ccc(Cl)cn2)cc(C2(C)CCSC(N)=N2)c1.Cl (stereo not shown) [Compound 284] | 181.5 °C
CC1(c2ccc3c(c2)CCO3)CCS/C(=N/S(C)(=O)=O)N1 (stereo not shown) [Compound 308] | 167 to 168 °C
CC1(c2cc(F)cc(NC(=O)c3ncc(Cl)cc3Cl)c2)CCSC(N)=N1 (stereo not shown) [Compound 342] | 184 to 187 °C
COc1ccc(C2(C)CCCN=C(NC(C)(C)C)S2)cc1 (stereo not shown) [Compound 354] | 102 to 103 °C
CC(C)(C)c1cccc(Oc2ccc(C3(C)CCSC(N)=N3)cc2)c1 (stereo not shown) [Compound 401] | 106 to 107 °C
NC1=NC2(CCCc3ccccc32)CCS1 (stereo not shown) [Compound 445] | 92 to 93 °C
NC1=NC2(CCS1)CCc1ccccc12 (stereo not shown) [Compound 525] | 105 to 106 °C
CC1(C)CCC(C)(C)c2cc(C3(C)CCSC(N)=N3)ccc21 (stereo not shown) [Compound 533] | 180 to 181 °C
CC1(c2ccc(C(F)(F)F)cc2)CCSC(N)=N1 (stereo not shown) [Compound 573] | 112 to 114 °C
Cn1nc(C(=O)Nc2cccc(C3(C)CCSC(N)=N3)c2)cc1[N+](=O)[O-] (stereo not shown) [Compound 601] | 181 to 192 °C
CCCCOc1ccc(C2(C)CCSC(N)=N2)cc1 (stereo not shown) [Compound 636] | 118 to 119 °C
CN(C)C(=O)c1ccc(C2(C)CCSC(N)=N2)cc1 (stereo not shown) [Compound 644] | 201 to 203 °C
CC1(c2cccc(CN3CCOCC3)c2)CCSC(N)=N1 (stereo not shown) [Compound 649] | 161 to 162 °C
CC1(c2cccc(NC(=O)c3ccc(C#N)cn3)c2)CCSC(N)=N1 (stereo not shown) [Compound 651] | 193 to 196 °C
CN(C)Cc1ccc(C(=O)Nc2cccc(C3(C)CCSC(N)=N3)c2)nc1 (stereo not shown) [Compound 653] | 193 to 194 °C
COc1ccccc1C1(C)CCSC(N)=N1 (stereo not shown) [Compound 680] | 159 to 160 °C
CC1(c2cccc(COc3ccc(Cl)cn3)c2)CCSC(N)=N1 (stereo not shown) [Compound 683] | 166 to 168 °C
CC1(c2cccc(C(=O)Nc3ccc(Cl)cc3)c2)CCSC(N)=N1 (stereo not shown) [Compound 700] | 177 to 178 °C
CCC1(c2ccc(OC)cc2)CCSC(N)=N1 (stereo not shown) [Compound 709] | 99 to 100 °C
CC1(c2cccc(NC(=O)c3ncc(Cl)cc3O)c2)CCSC(N)=N1 (stereo not shown) [Compound 717] | 157 to 162 °C
CC1(c2cccc(NC(=O)c3ncc(Cl)cc3N)c2)CCSC(N)=N1 (stereo not shown) [Compound 743] | 148 to 150 °C
CC(=O)/N=C1\NC(C)(c2ccc(F)cc2)CCS1 (stereo not shown) [Compound 767] | 98 to 100 °C
CC(C)(C)NC1=NC(C)(c2ccccc2)CCCS1 (stereo not shown) [Compound 810] | 47 to 48 °C

SMILES | melting point
CC(C)c1ccc2cc(C3(C)CCSC(N)=N3)ccc2c1 (stereo not shown) [Compound 811] | 138 to 139 °C
CC1(c2cc(NC(=O)c3ncc(Cl)cc3Cl)ccc2F)CCSC(N)=N1 (stereo not shown) [Compound 827] | 134 to 137 °C
COc1cccc(C2(C)CCSC(N)=N2)c1 (stereo not shown) [Compound 851] | 82 to 83 °C
CCOc1cnc(C(=O)Nc2cccc(C3(C)CCSC(N)=N3)c2)cn1 (stereo not shown) [Compound 863] | 192 to 194 °C
CC1(c2ccc(OCCc3ccc(O)cc3)cc2)CCSC(N)=N1 (stereo not shown) [Compound 881] | 141 to 144 °C
CC1(c2ccc(OCc3ccccc3)cc2)CCSC(N)=N1 (stereo not shown) [Compound 892] | 251 °C (dec.)
COc1ccc(SCCOc2cccc(C3(C)CCSC(N)=N3)c2)cc1 (stereo not shown) [Compound 916] | 131 to 132 °C
CNC(=O)CNC1=NC(C)(c2ccc3ccccc3c2)CCS1 (stereo not shown) [Compound 930] | 132.1 to 134.4 °C
CC1(c2ccc(OC(F)(F)F)cc2)CCSC(N)=N1 (stereo not shown) [Compound 968] | 107 to 109 °C
COc1ccc(C2(c3ccc(OC)cc3)CCSC(N)=N2)cc1 [Compound 1006] | 88 to 90 °C
COc1ccc(C2(C)CCCSC(N)=N2)cc1 (stereo not shown) [Compound 1008] | 125 to 126 °C
CNC1=NC(C)(c2ccc(OC)cc2)CCS1 (stereo not shown) [Compound 1064] | 84 to 85 °C
Cc1ccc(Oc2ccc(C3(C)CCSC(N)=N3)cc2)cc1 (stereo not shown) [Compound 1067] | 162 to 165 °C
CC1(c2ccc(F)c(C(=O)Nc3cc(Cl)ccn3)c2)CCSC(N)=N1 (stereo not shown) [Compound 1068] | 132 to 134 °C
Cc1cccc(Oc2ccc(C3(C)CCSC(N)=N3)cc2)c1 (stereo not shown) [Compound 1110] | 109 to 110 °C
CC1(c2cccc(NC(=O)c3cnc4ccccc4n3)c2)CCSC(N)=N1 (stereo not shown) [Compound 1115] | 167 to 170 °C
COC(=O)c1ccc(C2(C)CCSC(N)=N2)cc1 (stereo not shown) [Compound 1119] | 153 to 157 °C
CNC(=O)c1ccc(C2(C)CCSC(N)=N2)cc1 (stereo not shown) [Compound 1120] | 213 to 214 °C
CC1(c2cccc(Oc3ccccc3)c2)CCSC(N)=N1 (stereo not shown) [Compound 1139] | 140 to 141 °C
COC(=O)c1cccc(C2(C)CCSC(N)=N2)c1 (stereo not shown) [Compound 1153] | 156 to 159 °C
CC(=O)Nc1ccc(C2(C)CCSC(N)=N2)cc1 (stereo not shown) [Compound 1161] | 192 to 193 °C
CC1(c2ccc(F)c(-n3nc4c5cc(Cl)ccc5[nH]cc-4c3=O)c2)CCSC(N)=N1 (stereo not shown) [Compound 1166] | 290 to 295 °C
CC1(c2ccc(-c3ccccc3)cc2)CCSC(N)=N1 (stereo not shown) [Compound 1181] | 194 to 195 °C
CC1(c2ccc(C(=O)Nc3ccc(Cl)cc3)cc2)CCSC(N)=N1 (stereo not shown) [Compound 1230] | 232 to 234 °C
